The results in this text go back to ChEMBL document CHEMBL1201862, “PubChem BioAssay data set” (2004).

What all share (assay): NCI tumour cell line growth inhibition, 48 h
For assay [1], the system named is ACHN.
The subject of assay [2] is CAKI-1.
Assay [3] relates to DU-145.
The subject of assay [4] is HCC 2998.
The subject of assay [5] is HCT-116.
Assay [6] has as its system HOP-62.
Assay [7] deals with HOP-92.
Assay [8] deals with HT-29.
The subject of assay [9] is KM12.
The subject of assay [10] is LOX IMVI.
Assay [11] has as its system MDA-MB-231.
The test system of assay [12] is MOLT-4.
For assay [13], the system named is Malme-3M.
Assay [14] concerns NCI-H226.
Assay [15] concerns NCI-H522.
For assay [16], the system named is OVCAR-4.
The subject of assay [17] is OVCAR-8.
Assay [18] relates to SK-MEL-28.
Assay [19] deals with SK-OV-3.

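Cells were grown in 96-well plates and exposed to each compound for 48 hours at five concentrations; endpoints were interpolated linearly between bracketing concentrations, or set to the highest concentration if not reached. Abbreviation: GI50, concentration required for 50% inhibition of growth.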 The source made the active and inactive calls. Rule as the data show it: active = GI50 up to about 1.1 µM and inactive = higher.

With `C=C1C(=O)C23CC1C[C@H](OC(C)=O)[C@H]2C1(C)C(OC(C)=O)C[C@H](O)C(C)(C)[C@H]1C(=O)[C@@H]3OC(C)=O` (stereo not given in full), the GI50 in assay [1] is 4.98 µM (inactive); in assay [2] it was 2.86 µM (inactive); in assay [3], 12.9 µM (inactive); in assay [4] it was 19.2 µM (inactive); in [5], 2.22 µM (inactive); in assay [6], 25.2 µM (inactive). The GI50 was 0.248 µM (active) in [7]; 4.49 µM (inactive) in assay [8]; 10.9 µM (inactive) in [9]; 3.4 µM (inactive) in assay [10]; 5.7 µM (inactive) in assay [11]; 1.21 µM (inactive) in [12]. The GI50 in [13] was 2.17 µM (inactive); in [14], 23.2 µM (inactive); in assay [15] it was 1.57 µM (inactive); in assay [16], 4.09 µM (inactive); in assay [17], 2.95 µM (inactive); in assay [18], 4.59 µM (inactive). The GI50 in assay [19] is 18.1 µM (inactive).
In the case of `CC1=CCC[C@@H]2[C@@](C)(Cc3cc(O)ccc3O)[C@H](C)CC[C@@]12C`, the GI50 in assay [1] was 6.25 µM (inactive); in assay [2] it was 11.3 µM (inactive); in [3], 10.3 µM (inactive); in assay [4] it was 7.66 µM (inactive); in assay [5], 5.13 µM (inactive); in assay [6] it was 9.62 µM (inactive). The GI50 was 4.84 µM (inactive) in [7]; 17.7 µM (inactive) in assay [8]; 4.54 µM (inactive) in assay [9]; 4.99 µM (inactive) in assay [10]; 11.9 µM (inactive) in [11]; 3.48 µM (inactive) in assay [12]. The GI50 is 16.4 µM (inactive) in assay [13]; 16.2 µM (inactive) in [14]; 4.83 µM (inactive) in [15]; 12.1 µM (inactive) in assay [16]; 5.45 µM (inactive) in [17]; 8.81 µM (inactive) in assay [18]. Further, the GI50 in [19] is 12.6 µM (inactive).
As to `Brc1ccc(/C(N=N/C(=N\Sc2ccccc2)c2ccc(Br)cc2)=N/Sc2ccccc2)cc1`, the GI50 in assay [1] was > 61.1 µM (inactive); in assay [2], > 100 µM (inactive); in assay [3], > 100 µM (inactive); in assay [4] it was > 100 µM (inactive); in [5], > 100 µM (inactive); in [6], > 100 µM (inactive). The GI50 in [7] is > 100 µM (inactive); in [8], > 100 µM (inactive); in assay [9], > 62.1 µM (inactive); in assay [10], > 100 µM (inactive); in assay [11] it was > 100 µM (inactive); in assay [12], > 100 µM (inactive). Besides, the GI50 in assay [13], in assay [14], in [15], in assay [16], in assay [17] and in [18] was > 100 µM (inactive) in each case. For the same compound, the GI50 in assay [19] was > 100 µM (inactive).
With `CCCCCC(=O)OC[n+]1cccc(-c2c(COC(=O)NC(C)C)c(COC(=O)NC(C)C)c3n2CCC3)c1`, the GI50 is 23.1 µM (inactive) in assay [1]; 10.5 µM (inactive) in [2]; 35.4 µM (inactive) in assay [3]; > 100 µM (inactive) in assay [4]; 45.3 µM (inactive) in assay [5]; 44.1 µM (inactive) in [6]. Also, the GI50 in assay [7] was 27.4 µM (inactive); in assay [8] it was 46.9 µM (inactive); in assay [9] it was > 100 µM (inactive); in [10] it was 24 µM (inactive); in [11], 60.4 µM (inactive); in [12], 10.4 µM (inactive). The GI50 was 43.2 µM (inactive) in assay [13]; > 64.4 µM (inactive) in assay [14]; 15.6 µM (inactive) in assay [15]; 42.4 µM (inactive) in [16]; 20.2 µM (inactive) in [17]; > 100 µM (inactive) in assay [18]. The GI50 in assay [19] was > 57.3 µM (inactive).
Turning to `C=CCC1(O)c2ccccc2C(=O)c2c(O)ccc(O)c21` (stereo not given), the GI50 in assay [1] is 13.7 µM (inactive); in assay [2] it was 15.5 µM (inactive); in [3] it was 9.95 µM (inactive); in [4], 3.94 µM (inactive); in [5], 5.42 µM (inactive); in [6] it was 12.4 µM (inactive). For the same compound, the GI50 is 12.9 µM (inactive) in assay [7]; 7.28 µM (inactive) in assay [8]; 3.94 µM (inactive) in [9]; 9.66 µM (inactive) in [10]; 6.15 µM (inactive) in assay [11]; 1.93 µM (inactive) in assay [12]. For the same compound, the GI50 in [13] is 3.4 µM (inactive); in assay [14], 7.03 µM (inactive); in [15], 2.62 µM (inactive); in [16] it was 11.1 µM (inactive); in [17] it was 12.4 µM (inactive); in assay [18], 8.28 µM (inactive). Further, the GI50 in [19] is 10.4 µM (inactive).
As to `Oc1ccc(Cn2c(-c3ccc(O)c(O)c3)nc3ccccc32)cc1O`, the GI50 was 10.9 µM (inactive) in assay [1]; 15.5 µM (inactive) in assay [2]; 24.5 µM (inactive) in assay [3]; 13.9 µM (inactive) in assay [4]; 4.72 µM (inactive) in assay [5]; 14 µM (inactive) in [6]. The GI50 in [7] was 6.59 µM (inactive); in [8], 30.3 µM (inactive); in assay [9], 13.5 µM (inactive); in assay [10], 11.8 µM (inactive); in assay [11], 12.3 µM (inactive); in assay [12], 2.52 µM (inactive). For the same compound, the GI50 in assay [13] is 9.12 µM (inactive); in assay [14], 7.43 µM (inactive); in assay [15], 4.67 µM (inactive); in [16], 4.9 µM (inactive); in assay [17], 7.76 µM (inactive); in [18] it was 22.1 µM (inactive). Moreover, the GI50 in assay [19] was 18.6 µM (inactive).
As for `CN(C)c1ccc(/N=C2/NC(=N\c3ccccc3)/C(=N/c3ccccc3)S2)cc1`, the GI50 in assay [1] is 49.1 µM (inactive); in assay [2], > 100 µM (inactive); in assay [3], > 100 µM (inactive); in [4], > 100 µM (inactive); in assay [5], 85.3 µM (inactive); in assay [6], 41.6 µM (inactive). Besides, the GI50 in assay [7] was > 100 µM (inactive); in assay [8], > 100 µM (inactive); in assay [9] it was > 100 µM (inactive); in assay [10] it was 37.6 µM (inactive); in [11], > 100 µM (inactive); in [12], 89.1 µM (inactive). The GI50 was > 100 µM (inactive) in assay [13]; > 100 µM (inactive) in assay [14]; 5.64 µM (inactive) in [15]; > 100 µM (inactive) in [16]; 66.5 µM (inactive) in assay [17]; > 100 µM (inactive) in [18]. Also, in assay [19], the GI50 is 48.9 µM (inactive).
On to `Cc1cccc2c(N)c3cccc(C(=O)NCC[N+](C)(C)Cc4sccc4[N+](=O)[O-])c3nc12`, for which the GI50 in [1] is 3.78 µM (inactive); in [2], 2.55 µM (inactive); in [3], 23.8 µM (inactive); in assay [4] it was 7.69 µM (inactive); in [5] it was 12.1 µM (inactive); in [6], 2.6 µM (inactive). For the same compound, the GI50 was 34.5 µM (inactive) in [7]; 3.21 µM (inactive) in assay [8]; 9.68 µM (inactive) in [9]; 13.5 µM (inactive) in assay [10]; 12 µM (inactive) in assay [11]; 0.871 µM (active) in assay [12]. The GI50 in assay [13] is 10.4 µM (inactive); in assay [14], 6.18 µM (inactive); in assay [15], 2.64 µM (inactive); in [16] it was 12.3 µM (inactive); in assay [17], 9.84 µM (inactive); in assay [18], 37.3 µM (inactive). For the same compound, the GI50 in assay [19] is 10.8 µM (inactive).
Consider `CCC(=O)NCCc1c[nH]c2ccc(OC)cc12`, for which the GI50 in [1], in assay [2], in [3], in assay [4], in assay [5] and in [6] was > 100 µM (inactive) in each case. The GI50 in assay [7], in [8], in [9], in assay [10], in [11] and in [12] was > 100 µM (inactive) in each case. The GI50 in assay [13], in assay [14], in [15], in assay [16], in assay [17] and in [18] was > 100 µM (inactive) throughout. Further, the GI50 in assay [19] was > 100 µM (inactive).
In the case of `C=C1C(=O)OC2CC(C)C(C(O)CC(C)O)=CCC12` (stereo not given), the GI50 was 4.39 µM (inactive) in assay [1]; 4.3 µM (inactive) in assay [2]; 14.2 µM (inactive) in assay [3]; 18 µM (inactive) in assay [4]; 8.71 µM (inactive) in assay [5]; 26.2 µM (inactive) in [6]. Moreover, the GI50 in assay [7] is 12 µM (inactive); in assay [8], 13.6 µM (inactive); in assay [9], 18.6 µM (inactive); in assay [10], 10.6 µM (inactive); in assay [11], 17.8 µM (inactive); in assay [12], 14 µM (inactive). Further, the GI50 in assay [13] is 7.74 µM (inactive); in assay [14], 26.1 µM (inactive); in [15] it was 1.61 µM (inactive); in [16] it was 19.7 µM (inactive); in assay [17] it was 17.1 µM (inactive); in assay [18], 9.62 µM (inactive). Also, the GI50 in assay [19] was 36.7 µM (inactive).
